Data set [1] has as its target T1, human GPR119 (Homo sapiens, UniProt Q8TDV5).
T1 construct: expressed in transfected cells
T1 sequence (Q8TDV5 1-335): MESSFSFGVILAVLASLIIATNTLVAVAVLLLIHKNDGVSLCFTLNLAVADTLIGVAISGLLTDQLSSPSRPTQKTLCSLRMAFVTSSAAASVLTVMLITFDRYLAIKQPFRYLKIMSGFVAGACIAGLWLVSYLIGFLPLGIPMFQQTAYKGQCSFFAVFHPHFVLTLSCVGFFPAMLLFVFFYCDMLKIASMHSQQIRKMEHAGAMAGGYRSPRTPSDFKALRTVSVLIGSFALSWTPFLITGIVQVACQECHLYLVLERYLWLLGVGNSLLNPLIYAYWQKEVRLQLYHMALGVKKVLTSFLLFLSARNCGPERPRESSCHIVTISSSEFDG
Briefly: Intracellular cAMP increase in human GPR119 introduced cells (HitHunter cAMP XS+ Assay). The class given is cell-based. The conditions noted are these: for EC50: hGPR119 stable cells, intracellular cAMP; for GPR119 agonist effect (in words): hGPR119 introduced cells, cAMP. The text has this:
The GPR119 agonist effect was studied by measuring the effect of an analyte on increase of intracellular amount of cAMP in human GPR119 introduced cells. The testing method is described below.
(1) Construction of the Stable Cell Line Expressing Human G Protein-Coupled-Receptor 119 (hGPR119) Human GPR119 gene (NM 178471) is purchased from American Type Culture Collection (ATCC No. 10807349). Hind III site-added forward side primer ([…]: sequence No. 1) and Apa I site-added reverse side primer ([…]: sequence No. 2) are designed. The target gene is amplyfied by a polymerase chain reaction (PCR) method using KOD-Plus-Ver. 2 (TOYOBO #KOD-211). PCR is conducted by repeating three steps consisting of the step of 98° C.-10 seconds, the step of 55° C.-30 seconds, and the step of 68° C.-1 minute and 10 seconds in 35 cycles. The amplified PCR product is inserted into pcDNA5/FRT/TO (Invitrogen #V6520-20) plasmid. Cells, which can constantly express the target gene with tetracycline, are constructed using Flp-In T-REx-systen (invitorogen).
(2) Measurement of Intracellular Cyclic Adenosine Monophosphate (cAMP)
The hGPR119 introduced cells prepared in (1) are plated on a 96-well plate using Dulbecco's Modified Eagle Medium containing heat-inactived 10% fetal bovine serum. After incubation of 24 hours, tetracyclin (invitrogen #Q10019) is added to the culture medium to induce hGPR119 gene expression. After further incubation of 24 hours, the cells are stimulated with 0.5 mM 3-ISOBUTYL-1-METHYLXANTHINE (Sigma #17018) phosphate buffer containing the analyte at 37° C. for 30 minutes. The amount of the intracellular cAMP is measured by using FLUOstar Optima (BMG LABTECH) according to the protocol of HitHunter™ cAMP XS+Assay (GE Healthcare #90007503) to give the agonist activity of the analyte to the GPR119 receptor.
(1) Construction of the Stable Cell Line Expressing Human G-Protein Coupled Receptor 119 (hGPR119) hGPR119 gene (NM 178471) was purchased from American Type Culture Collection (ATCC No. 10807349). The forward primer that was added a HindIII site ([…] (sequence number 1)), and the reverse primer that was added an ApaI site ([…] (sequence number 2)) were designed, the target gene was amplified by polymerase chain reaction (PCR) using a KOD-Plus-Ver.2 (TOYOBO #KOD-211). PCR was repeated 3 steps (98° C. for 10 sec, 55° C. for 30 sec, 68° C. for 1 min 15 sec) by 35 cycles. Amplified PCR product was inserted in pcDNA5/FRT/TO (Invitrogen #V6520-20), and the stable cell line that expresses target gene when induced with tetracycline was created using the Flp-In T-Rex system (Invitrogen).
(2) Measuring Method of Intracellular Cyclic Adenosine Monophosphate (cAMP) hGPR119 stable cells made by above-mentioned (1) were plated on 96 well plates in Dulbecco's Modified Eagle Medium containing 10% heat-inactivated FBS. After 24 hours, the hGPR119 expression was induced by adding medium containing tetracycline (Invitrogen #Q10019) and incubating for another 24 hours. Following incubation, cells were stimulated by 0.5 mM 3-ISOBUTYL-1-METHYLXANTHINE (Sigma #17018) phosphate buffered saline containing test compound for 30 minutes at 37° C. Agonist activity of test compound to the GPR119 receptor was estimated by measuring the intracellular cAMP concentration using a Fluostar optima plate reader (BMG LABTECH) according to the manufacturer's protocol of the HitHunter™ cAMP XS+Assay (GE Healthcare #90007503).
The examination was performed by the method similar to Example 86 (Pharmacological experiment 1)-(1), -(2).

Data set [2] has as its system normal mice. In words: Oral glucose tolerance test in normal mice. The class given is in vivo. Here is the method:
Oral glucose tolerance is tested in normal mice.
In this experiment, the inhibitory effect of an analyte on glycemic excursions is examined after glucose administration in normal mice. The test methods are described below.
Male 9-week-old ICR mice, habituated to the experimental environment for two weeks, are fasted for 18 hours and used to this experiment. Mice are orally administered the analyte or vehicle (polyethylene glycol 400:ethanol:Tween 80=8:1:1). After 30 minutes, they were orally given glucose at the dose of 3 g/kg.
Blood was collected at just before the analyte or vehicle administration (−30 minutes), immediately before glucose challenge (0 minute), 20 minutes, 40 minutes, 60 minutes, and 120 minutes after glucose ingestion to determine blood glucose levels.
Inhibition rate (%) of the analyte versus vehicle in areas under the glycemic excursion curve between 0 and 120 min after glucose challenge is determined.
Oral Glucose Tolerance Test in Normal Mice […]
Blood was collected at just before the test compound or vehicle administration (−30 min), immediately before glucose challenge (0 min), 20 min, 40 min, 60 min and 120 min after glucose ingestion and then blood glucose levels were determined.
Inhibition rate (%) of the test compound versus vehicle in areas under the glycemic excursion curve between 0 and 120 min after glucose challenge was determined.

Setting [3] is: Table 17, method similar to Example 86.
[4] abbreviates: Table 16, tetracycline-induced, 30 minutes at 37° C.

Structures are written as SMILES.

Usually EC50 stands for the concentration that produces a half-maximal response. The melting point is the temperature of the solid-liquid transition. The compound `CC(C)(C)OC(=O)N1CCC(c2ccc(COc3ccc(-n4cncn4)cc3)nc2)CC1` [Example 16, tert-Butyl 4-[2-[4-(1,2,4-triazol-1-yl)phenoxymethyl]pyridin-5-yl]piperidine-1-carboxylate] returned a melting point of 147 to 150 °C. The same compound yielded an EC50 in data set [1] (setting [3]) of 129 nM.

Compound `Cc1cc(C2CCN(C(=O)OC(C)(C)C)CC2)cnc1COc1ccc(S(C)(=O)=O)cc1` [Example 63, tert-Butyl 4-[2-(4-methanesulfonylphenoxymethyl)-3-methylpyridin-5-yl]piperidine-1-carboxylate] came in with a melting point of 130 to 132 °C. This compound returned an EC50 in data set [1] (setting [3]) of 28.4 nM.

In turn, `CCc1cnc(N2CCC(c3ccc(COc4ccc(S(C)(=O)=O)cc4)nc3)CC2)nc1` [Example 48, 5-Ethyl-2-[4-[2-(4-methanesulfonylphenoxymethyl)pyridin-5-yl]piperidin-1-yl]pyrimidine] returned a melting point of 185 to 187 °C. For the same compound, the EC50 in data set [1] (setting [3]) came out at 137 nM.

Consider `CC(C)c1nc(N2CCC(c3ccc(COc4ccc(S(C)(=O)=O)cc4)nc3)CC2)no1` [Example 8, 5-[1-(5-Isopropyl-1,2,4-oxadiazol-3-yl)piperidin-4-yl]-2-(4-methanesulfonylphenoxymethyl)pyridine], for which the melting point is 143 to 145 °C. For the same compound, the EC50 in data set [1] (setting [3]) is 137 nM.

Consider `CC(C)(C)OC(=O)N1CCC(c2ccc(COc3ccc(S(C)(=O)=O)cc3)cn2)CC1` [Example 2, tert-Butyl 4-[5-(4-methanesulfonylphenoxymethyl)pyridin-2-yl]piperidine-1-carboxylate], for which the melting point fell in the range of 140 to 142 °C. In data set [1] (setting [4]), this compound displayed an EC50 of 606 nM. For the same compound, the “GPR119 agonist effect (in words)” value in data set [1] is recorded as “excellent GPR119 agonist effect”.

The compound `CCC(C)(C)OC(=O)N1CCC(c2ccc(COc3ccc(S(C)(=O)=O)cc3)nc2)CC1` [Example 41, 1,1-Dimethylpropyl 4-[2-(4-methanesulfonylphenoxymethyl)pyridin-5-yl]piperidine-1-carboxylate] had a melting point of 114 to 115 °C. In data set [1] (setting [3]), a half-maximal response (EC50) required 114 nM.

`CC(C)(C)OC(=O)N1CCC(c2ccc(COc3ccc(S(C)(=O)=O)cc3)nc2)CC1` [Example 1, tert-Butyl 4-[2-(4-methanesulfonylphenoxymethyl)pyridin-5-yl]piperidine-1-carboxylate]: a half-maximal response in data set [1] (setting [4]) (EC50) required 26.8 nM. Also, the “GPR119 agonist effect (in words)” value in data set [1] is given as “excellent GPR119 agonist effect”. Further, the “Inhibition rate (%)” value in data set [2] (10 mg/kg oral, male ICR mice, glucose 3 g/kg 30 min later, area under glycemic excursion curve 0-120 min versus vehicle) is given as 41.8%. In addition, the “inhibitory effect on glycemic excursions (in words)” value in data set [2] (oral glucose tolerance test of normal mice) is reported as “strong inhibitory effect”.

The compound `Cc1cc(C2CCN(C(=O)OC(C)(C)C)CC2)cnc1COc1ccc(S(C)(=O)=O)cc1Cl` [Example 80, tert-Butyl 4-[2-(2-chloro-4-methanesulfonylphenoxymethyl)-3-methylpyridin-5-yl]piperidine-1-carboxylate] came in with a melting point of 143 to 145 °C. This compound also yielded an EC50 in data set [1] (setting [3]) of 65.9 nM.

These data come from patent US20140018537A1, “GPR119 AGONIST” (NIPPON CHEMIPHAR CO., LTD., priority 2008, published 2014).
